In patent US10508092B2, “Synthesis of novel analogs of diptoindonesin G, compounds formed thereby, and pharmaceutical compositions containing them” (Wisconsin Alumni Research Foundation, priority 2016, dated 2019):
Entries after “also recorded” stand apart in the source; their conditions may differ.

How the values were obtained:
ERα = ERα transcriptional activity in MCF7 cells; format: cell-based, human
[1] = tested on: murine leukemia P-388 cells; settings: cited from earlier work
[2] = tested on: mouse splenic lymphocytes (T cells); settings: concanavalin A induced proliferation of mouse splenic lymphocytes; cited from earlier work
[3] = Maximum tolerated dose in mouse models; settings: in vivo, five days out of seven
Experimental: Dip G was synthesized as described and formulated for the in vivo treatment. Dip G was prepared by dissolving the stock powder in 100% DMSO to a final concentration of 50 mg/ml. This stock solution was then diluted 1:5 into a 40% polyethylene glycol (PEG300)/40% normal saline (0.9% NaCl) solution to a final concentration of 20% Dip G solution. […] To determine MTD, escalating doses of Dip G dissolved in the aforementioned formulation were injected retro-orbitally or by oral gavage daily, five days out of seven to determine the MTD. […] (Data not shown.) Dip G was intra-tumorally delivered to ERα-positive T47D xenografted mice three times a week and the tumors were monitored for three weeks. […] (AST ELISAs are available commercially from several suppliers, including Abcam, Cambridge, Mass.)

[4] = tested on: estrogen receptor α (ERα); experiment: Western blot of ERα levels in MCF7 cells; format: cell-based, human
Experimental: FIGS. 1A, 1B, and 1C together depict the biological activity of the subject compounds on estrogen receptor α (ERα) levels in human breast cancer cells.
(§1) The biological activity of these four analogs were then compared with the parent compound Dip G following our previous protocol (Zhao et al., supra). See FIGS. 1A, 1B, 1C, 2A, 2B, and 2C. Cells were treated with each compound at 10 μM concentration in order to evaluate how well each modified the stability of ERα and ERβ.
(§2) MCF7 cells were treated with Dip G and analogs for 24 hours before harvesting. Hs578T-tet-on-ERβ cells (ATCC HTB-126; American Type Culture Collection, Manassas, Va.) were treated with doxycycline for 24 hours to induce ERβ expression. Then the cells were treated with compounds for 5 days before harvesting. 15 μg of total cell lysates were resolved on SDS-PAGE and Western blot analyses were performed as previously described using ERα antibody (HC-20, Santa Cruz Biotechnology, Inc., Dallas, Tex.) and anti-FLAG antibody (F7425, Sigma-Aldrich Co., LLC, St. Louis, Mo.) for ERβ.^3

[5] = tested on: estrogen receptor β (ERβ); settings: breast cancer, Zhao et al. 2015; cited from earlier work
CHIP ubiquitin E3 ligase = molecular target: T1, CHIP ubiquitin E3 ligase (Homo sapiens, UniProt Q9UNE7); settings: Zhao et al. 2015; cited from earlier work
T1 sequence (Q9UNE7 1-303): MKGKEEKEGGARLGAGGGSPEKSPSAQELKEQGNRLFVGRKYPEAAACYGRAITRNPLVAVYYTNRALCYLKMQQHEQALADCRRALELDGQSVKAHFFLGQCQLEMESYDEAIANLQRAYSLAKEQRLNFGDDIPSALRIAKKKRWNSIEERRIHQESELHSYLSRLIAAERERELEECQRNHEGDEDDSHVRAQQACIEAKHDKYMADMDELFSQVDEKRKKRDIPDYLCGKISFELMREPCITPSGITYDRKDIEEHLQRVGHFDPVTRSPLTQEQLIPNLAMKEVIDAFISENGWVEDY

wildtype ERα = experiment: ERE-Luciferase activity of wildtype ERα in T47D cells; format: cell-based, human; settings: co-treated with 10 nM E2, 10 μM, 24 hrs
Experimental: (§3) FIG. 6 is a histogram depicting Dip G- and Dip G-D1-inhibited E2-dependent ERE-Luciferase activities of wildtype ERα or ERα Y537S in T47D cells. Cells were co-treated with 10 nM E2 and Dip G or Dip G-D1 (10 μM) for 24 hrs. The experiments were performed in triplicate. Data are represented as mean±SD, n=3.

ERαY537S mutant protein = experiment: ELISA of ERα protein in T47D-ERαY537S cells; format: cell-based, human; settings: 24 hrs, FIG. 5
Experimental: T47D cells were treated with DMSO, Fulvestrant, Dip G and a Dip G derivative (Dip G-D1, compound 17) for 24 hrs. ERα protein amounts in cell lysate were quantified using ELISA kit (R&D systems) and normalized to standard curve using purified ERα protein. The experiments were performed in triplicate. Data are represented as mean±SD, n=3.
(T47D ERα WT is available from the American Type Culture Collection, Manassas, Va.; accession no. HTB-133. The T47D ERα Y537S cell line is described in Wardell et al 2015) “Efficacy of SERD/SERM Hybrid-CDK4/6 Inhibitor Combinations in Models of Endocrine Therapy-Resistant Breast Cancer,” Clin Cancer Res. 21(22):5121-5130. […] McCormack, P. and Sapunar, F. (2008) “Pharmacokinetic profile of the fulvestrant loading dose regimen in postmenopausal women with hormone receptor-positive advanced breast cancer,” Clinical breast cancer 8:347-351.

ERα Y537S = experiment: ERE-Luciferase activity of ERα Y537S in T47D cells; format: cell-based, human
Experimental: as §3
See Merenbakh-Lamin, K., Ben-Baruch, N., Yeheskel, A., Dvir, A., Soussan-Gutman, L., Jeselsohn, R., Yelensky, R., Brown, M., Miller, V. A., Sarid, D. et al. (2013) “D538G mutation in estrogen receptor-alpha: A novel mechanism for acquired endocrine resistance in breast cancer,” Cancer research, 73:6856-6864 and Jeselsohn, R., Yelensky, R., Buchwalter, G., Frampton, G., Meric-Bernstam, F., Gonzalez-Angulo, A. M., Ferrer-Lozano, J., Perez-Fidalgo, J. A., Cristofanilli, M., Gomez, H. et al. (2014) “Emergence of constitutively active estrogen receptor-alpha mutations in pretreated advanced estrogen receptor-positive breast cancer,” Clinical cancer research: an official journal of the American Association for Cancer Research, 20:1757-1767. Using these ERα mutant expressing cell lines, we will: (a) compare ERα degradation rate induced by fulvestrant, Dip G and Dip G-D1 using ELISA assay as shown in FIG. 5; (b) measure IC50 of Dip G and Dip G analogues to inhibit ERα transcriptional activity in luciferase assay.

[6] = tested on: estrogen receptor β (ERβ); experiment: Western blot of FLAG-ERβ levels in Hs578T-ERβLuc Dox-inducible cells; format: cell-based, human; settings: Hs578T-ERβLuc Dox-inducible line, 10 μM, 5 days, Western blot (anti-FLAG)
Experimental: FIGS. 2A, 2B, and 2C together depict the biological activity of the subject compounds on estrogen receptor β (ERβ) levels in human breast cancer cells.
as §1, §2

## O=C1c2c(O)cc(O)cc2-c2c(-c3ccc(O)cc3)oc3cc(O)cc1c23 [Dip G, diptoindonesin G]
ERα
  ERα transcriptional activity: decreases ERα transcriptional activity
[1]
  anti-proliferation effect: anti-proliferation effect
[2]
  immunosuppressant activity: immunosuppressant activity
[3]; oral gavage daily
  MTD: 50 mg/kg
[3]; other: retro-orbital injection, retro-orbital injection daily
  MTD: 20 mg/kg
[4]; 10 μM, compared to untreated cells, gel blot FIG. 4
  amount of endogenous ERα in MCF7 cells: degrades endogenous ERα; also recorded: greatly decreased
[4]; MCF7 cells, 10 μM, 24 hours, Western blot
  ERα stability: decreased ERα stability with the largest change
[4]; MCF7 cells, FIG. 4
  endogenous ERα protein levels: less than 20%
[5]
  stability of ERβ: increases the stability
CHIP ubiquitin E3 ligase
  target E3 ubiquitin ligase CHIP (STUB1): found to target
Wildtype ERα
  E2-dependent ERE-Luciferase activity of wildtype ERα: inhibited
ERαY537S mutant protein
  degradation of ERαY537S mutant protein: more effective than 100 nM fulvestrant
ERα Y537S; T47D cells, co-treated with 10 nM E2, 10 μM, 24 hrs
  E2-dependent ERE-Luciferase activity of ERα Y537S: inhibited
ERα Y537S; T47D expressing ERα Y537S, preliminary data
  ligand-independent transcription activity of ERα Y537S mutant: can be inhibited
[6]
  ERβ stability: strongly stabilized
